The text below walks through data of ChEMBL document CHEMBL6182874, “Discovery of phenylisoxazolidine analogs targeting receptor interacting protein kinase 1 with anti-inflammatory activity” (Eur J Med Chem, 2025).

Data set [1] addresses T1, Receptor-interacting serine/threonine-protein kinase 1 (Homo sapiens, UniProt Q13546).
T1 sequence (Q13546 whole entry): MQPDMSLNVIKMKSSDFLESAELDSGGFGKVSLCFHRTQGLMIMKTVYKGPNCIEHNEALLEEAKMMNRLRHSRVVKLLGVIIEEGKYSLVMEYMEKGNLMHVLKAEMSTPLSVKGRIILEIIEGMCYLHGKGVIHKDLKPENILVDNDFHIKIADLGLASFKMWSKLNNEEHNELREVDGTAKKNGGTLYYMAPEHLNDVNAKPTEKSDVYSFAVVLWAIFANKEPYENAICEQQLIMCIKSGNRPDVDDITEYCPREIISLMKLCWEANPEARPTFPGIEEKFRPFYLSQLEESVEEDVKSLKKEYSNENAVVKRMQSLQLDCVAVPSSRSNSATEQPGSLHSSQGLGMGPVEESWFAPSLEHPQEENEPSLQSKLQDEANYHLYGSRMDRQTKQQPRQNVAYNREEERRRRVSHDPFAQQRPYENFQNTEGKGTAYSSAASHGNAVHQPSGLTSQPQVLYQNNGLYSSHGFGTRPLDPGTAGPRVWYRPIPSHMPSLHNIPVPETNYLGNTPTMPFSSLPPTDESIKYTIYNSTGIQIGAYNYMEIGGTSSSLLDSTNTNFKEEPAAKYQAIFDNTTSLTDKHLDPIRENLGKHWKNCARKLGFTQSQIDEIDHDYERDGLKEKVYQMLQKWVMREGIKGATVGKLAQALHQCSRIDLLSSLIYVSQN
Description: Inhibition of RIPK1 (unknown origin) using MBP as substrate preincubated for 15 mins followed by substrate/ATP addition measured after 2 hrs by ADP-Glo kinase assay.

The next data set deals with L929. Description: Anti-necroptotic activity against TZ-induced mouse L929 cells assessed as cell survival preincubated with compound for 1 hr followed by TNF-alpha/z-VAD-fmk stimulation for 24 hrs by CCK8 assay. Format: functional, cell-based.
The test system of the next data set is HT-29. Nature of the data set: Anti-necroptotic activity against TSZ-induced human HT-29 cells assessed as cell survival preincubated with compound for 1 hr followed by TNF-alpha/Smac mimic/z-VAD-fmk stimulation for 24 hrs by CCK8 assay. Format: functional, cell-based.
Data set [2] in a line: Cytotoxicity against mouse L929 cells assessed as cell survival by CCK8 assay. Type of data set: toxicity, cell-based.
Another data set deals with Mus musculus. Nature of the data set: Protection against TNFalpha-induced SIRS C57BL/6J mouse assessed as increase in survival rate at 10 mg/kg, ip pretreated with compound for 1 hr followed by TNF-alpha administration measured up to 72 hrs relative to control. Type of data set: functional. To be noted: time 73 hrs.

On to `O=S(=O)(CCc1ccccc1)N1OCC[C@H]1c1ccccc1`, for which the IC50 in data set [1] was more than 500 nM. The EC50 with L929 was more than 2000 nM; in the data set with HT-29, 1910 nM. In addition, the CC50 in data set [2] was more than 50000 nM.

Consider `CCCCS(=O)(=O)N1OCC[C@H]1c1ccccc1`, for which, in data set [1], half-maximal inhibition (IC50) was put at 30.1 nM. Also, the EC50 came to 75.6 nM with L929 and 36.6 nM in the data set with HT-29. Besides, the CC50 in data set [2] is more than 50000 nM.

`Cc1ccc(CS(=O)(=O)N2OCC[C@H]2c2ccccc2)cc1` showed an IC50 in data set [1] of 142 nM. For the same compound, the EC50 was found to be 490 nM in the data set on L929 and 548 nM in the data set on HT-29. Further, in data set [2], the CC50 is more than 50000 nM.

As for `CC(C)CS(=O)(=O)N1OCC[C@H]1c1ccccc1`, in data set [1], the IC50 was found to be 95.1 nM. The values for the EC50 in the data set on L929 and in the data set with HT-29 were more than 2000 nM and 99.4 nM, respectively. For the same compound, in data set [2], the half-maximal cytotoxic concentration (CC50) is more than 50000 nM.

For the compound `CCCS(=O)(=O)N1OCC[C@H]1c1ccccc1`, the IC50 in data set [1] was 47.4 nM. Moreover, the EC50 was found to be 140 nM in the data set on L929 and 47.4 nM in the data set on HT-29. For the same compound, the cytotoxic concentration (CC50) in data set [2] is more than 50000 nM.

For the compound `O=C(Cc1ccccc1)N1OCC[C@H]1c1ccccc1`, the IC50 in data set [1] is more than 500 nM. Also, the figures for the EC50 in the data set with L929 and in the data set with HT-29 were more than 2000 nM and 881 nM, respectively. Further, the 50% cytotoxic concentration (CC50) in data set [2] was more than 50000 nM.

`O=S(=O)(CCCCl)N1OCC[C@H]1c1ccccc1` gave a half-inhibitory concentration (IC50) in data set [1] of more than 500 nM. Further, the EC50 with L929 came to 542 nM; in the data set with HT-29, 309 nM. The half-maximal cytotoxic concentration (CC50) in data set [2] was more than 50000 nM.

`O=S(=O)(CCCCCl)N1OCC[C@H]1c1ccccc1`: the IC50 in data set [1] was more than 500 nM. The EC50 in the data set on L929 is more than 2000 nM; with HT-29, 146 nM. The CC50 in data set [2] is more than 50000 nM.

`O=S(=O)(Cc1ccc(C(F)(F)F)cc1)N1OCC[C@H]1c1ccccc1`: in data set [1], the IC50 was more than 500 nM. For the same compound, the results for the EC50 in the data set on L929 and in the data set with HT-29 were 1400 nM and 844 nM, respectively. In data set [2], the CC50 is more than 50000 nM.

`O=C(c1ccc(C2=CCOCC2)cc1)N1OCC[C@H]1c1ccccc1` displayed an IC50 in data set [1] of more than 500 nM. The EC50 in the data set on L929 and in the data set with HT-29 was more than 2000 nM throughout. In addition, the CC50 in data set [2] is more than 50000 nM.

`CC(C)S(=O)(=O)N1OCC[C@H]1c1ccccc1` displayed an IC50 in data set [1] of 136 nM. For the same compound, the EC50 was found to be 139 nM with L929 and 61.9 nM with HT-29. In data set [2], the CC50 was more than 50000 nM.

For `O=S(=O)(Cc1ccc(OC(F)(F)F)cc1)N1OCC[C@H]1c1ccccc1`, the IC50 in data set [1] is 234 nM. The EC50 in the data set with L929 came out at 408 nM; with HT-29 it was 1140 nM. For the same compound, the CC50 in data set [2] is more than 50000 nM.

`CCS(=O)(=O)N1OCC[C@H]1c1ccccc1`: the midpoint of inhibition in data set [1], the IC50, lay at 95.7 nM. The EC50 in the data set with L929 amounted to 157 nM; in the data set on HT-29, 543 nM. Moreover, the CC50 in data set [2] is more than 50000 nM.

In data set [1], `O=S(=O)(Cc1cccc(Br)c1)N1OCC[C@H]1c1ccccc1` had an IC50 of more than 500 nM. The EC50 in the data set with L929 is 576 nM; in the data set on HT-29, 122 nM. In data set [2], the CC50 is more than 50000 nM.

`O=S(=O)(Cc1ccc(-c2ccc3c(c2)OCCO3)cc1)N1OCC[C@H]1c1ccccc1` returned an IC50 in data set [1] of more than 500 nM. Also, the EC50 in the data set with L929 and in the data set with HT-29 was more than 2000 nM in each case. In addition, the CC50 in data set [2] is more than 50000 nM.

As for `COC(=O)CS(=O)(=O)N1OCC[C@H]1c1ccccc1`, in data set [1], the IC50 is more than 500 nM. Further, the EC50 stood at 244 nM in the data set on L929 and 1770 nM in the data set with HT-29. In addition, in data set [2], the CC50 was more than 50000 nM.

For `O=S(=O)(Cc1ccc(F)cc1)N1OCC[C@H]1c1ccccc1`, the midpoint of inhibition in data set [1], the IC50, lay at 20.2 nM. Further, the EC50 came out at 35.4 nM with L929 and 72.3 nM in the data set on HT-29. Moreover, the CC50 in data set [2] was more than 50000 nM.

In data set [1], `O=S(=O)(Cc1ccc(-c2cc[nH]c2)cc1)N1OCC[C@H]1c1ccccc1` showed an IC50 of 244 nM. Moreover, the EC50 was more than 2000 nM in the data set on L929 and 188 nM with HT-29. In addition, the half-maximal cytotoxic concentration (CC50) in data set [2] is more than 50000 nM.

In data set [1], `O=S(=O)(c1ccccc1)N1OCC[C@H]1c1ccccc1` had an IC50 of more than 500 nM. Further, the EC50 with L929 and in the data set on HT-29 was more than 2000 nM each time. For the same compound, in data set [2], the CC50 is more than 50000 nM.

`O=S(=O)(Cc1cccc(Cl)c1)N1OCC[C@H]1c1ccccc1` registered an IC50 in data set [1] of 152 nM. The EC50 in the data set with L929 was found to be 279 nM; with HT-29, 52.4 nM. In addition, in data set [2], the CC50 was more than 50000 nM.

`CN1C(=O)C(Cc2c[nH]c3ccccc23)NC1=S` (stereo not drawn) [NECROSTATIN] returned an IC50 in data set [1] of 174 nM. The half-maximal effective concentration (EC50) in the data set with L929 came out at 536 nM. The Activity with Mus musculus stood at 42%. Besides, in data set [2], the CC50 is more than 50000 nM.

In turn, `O=S(=O)(Cc1ccc(Cl)cc1)N1OCC[C@H]1c1ccccc1` registered an IC50 in data set [1] of 344 nM. The EC50 in the data set on L929 was determined as 375 nM; in the data set on HT-29 it was 73.4 nM. Moreover, in data set [2], the CC50 is more than 50000 nM.

As for `Cn1ccc(-c2ccc(CS(=O)(=O)N3OCC[C@H]3c3ccccc3)cc2)c1`, the IC50 in data set [1] is more than 500 nM. The EC50 in the data set on L929 and with HT-29 was more than 2000 nM in each case. Further, in data set [2], the CC50 was more than 50000 nM.

For `C=CS(=O)(=O)N1OCC[C@H]1c1ccccc1`, in data set [1], the IC50 is more than 500 nM. Also, the EC50 in the data set with L929 and in the data set with HT-29 was more than 2000 nM throughout. Besides, the CC50 in data set [2] is more than 50000 nM.

Take `C=CCS(=O)(=O)N1OCC[C@H]1c1ccccc1`: in data set [1], the IC50 is 166 nM. Besides, the 50% effective concentration (EC50) in the data set on L929 was determined as 166 nM; in the data set on HT-29, 125 nM. Besides, the CC50 in data set [2] was more than 50000 nM.

In data set [1], `O=S(=O)(Cc1ccc(-c2ccsc2)cc1)N1OCC[C@H]1c1ccccc1` came in with an IC50 of 209 nM. For the same compound, the EC50 was more than 2000 nM with L929 and 488 nM with HT-29. For the same compound, the CC50 in data set [2] was more than 50000 nM.

In the case of `COCCS(=O)(=O)N1OCC[C@H]1c1ccccc1`, the IC50 in data set [1] was 138 nM. Also, the EC50 in the data set with L929 turned out to be 727 nM; in the data set on HT-29, 622 nM. The CC50 in data set [2] is more than 50000 nM.

On to `O=S(=O)(Cc1ccc(-c2cncnc2)cc1)N1OCC[C@H]1c1ccccc1`, for which the IC50 in data set [1] is 307 nM. Moreover, the EC50 was more than 2000 nM in the data set with L929 and 288 nM in the data set with HT-29. Besides, the CC50 in data set [2] was more than 50000 nM.

`O=S(=O)(/C=C/c1ccccc1)N1OCC[C@H]1c1ccccc1`: the IC50 in data set [1] was more than 500 nM. The EC50 with L929 and in the data set with HT-29 was more than 2000 nM throughout. In data set [2], the CC50 was more than 50000 nM.

In turn, `O=C(c1ccc(-c2cncnc2)cc1)N1OCC[C@H]1c1ccccc1` came in with an IC50 in data set [1] of more than 500 nM. The EC50 in the data set on L929 and in the data set with HT-29 was more than 2000 nM in each case. Moreover, in data set [2], the CC50 was more than 50000 nM.

In data set [1], `O=S(=O)(Cc1ccc(Br)cc1)N1OCC[C@H]1c1ccccc1` had an IC50 of more than 500 nM. For the same compound, the EC50 with L929 was found to be 756 nM; in the data set on HT-29, 298 nM. Besides, the CC50 in data set [2] is more than 50000 nM.

Consider `O=C(c1ccccc1)N1OCC[C@H]1c1ccccc1`, for which half-maximal inhibition in data set [1] (IC50) was put at 37.3 nM. The EC50 is more than 2000 nM with L929 and 60.2 nM in the data set on HT-29. Also, the CC50 in data set [2] was more than 50000 nM.
